The text below walks through data of patent US20030224942A1, “Alkylamino-1,3,5-triazines, processes for their preparation and their use as herbicides and plant growth regulators” (priority 2001, published 2003).

SMILES strings stand for the structures.

Assay [1] relates to Chenopodium spp., Papaver spp., Polygonum spp., Veronica spp. or Viola spp. The experiment in a line: Post-emergence effect on weeds (greenhouse pot test, visual scoring). Format: in vivo, monocotyledonous and dicotyledonous weeds. Conditions: treated at three-leaf stage; visual scoring after about 3 to 4 weeks; application rate of 0.5 kg and less of active substance per hectare.

The test system of assay [2] is Cyperus spp., Echinochloa spp., Digitaria spp., Sagitaria spp. and Scirpus spp. The experiment in a line: Action on harmful plants in rice (paddy rice conditions, visual scoring). Conditions: applied into the dammed water, visual scoring about three weeks after application. In kind it is in vivo, typical rice weeds (gramineous and broad-leaved). The source says:
Transplanted and sown rice and also typical rice weeds (gramineous and broad-leaved) are cultivated in closed plastic pots in a greenhouse to the three-leaf stage (Echinochloa crus-galli 1.5-leaf) under paddy rice conditions (dammed height of water: 2-3 cm). This is followed by treatment with the compounds according to the invention. […] After this treatment, the test plants are set up in a greenhouse under optimum growth conditions and are maintained in this way throughout the test period.

For `C#Cc1ccc(C(C)Nc2nc(N)nc(CC)n2)cc1` (stereo not drawn) [Product P7.1580], the “herbicidal activity post-emergence against harmful plants” value (“herbicidal activity post-emergence” for short) in assay [1] is “very good herbicidal activity”. In assay [2], the “herbicidal activity against harmful plants which are typical for rice crops” value (“herbicidal activity … for rice crops” for short) is given as “very good herbicidal activity”.

In the case of `CC#Cc1cccc(C(C)Nc2nc(N)nc(CC)n2)c1` (stereo not drawn) [Product P7.1582], the “herbicidal activity post-emergence” value in assay [1] is reported as “very good herbicidal activity”. In assay [2], the “herbicidal activity … for rice crops” value is recorded as “very good herbicidal activity”.

As for `CC#Cc1ccc(C(C)Nc2nc(N)nc(CC)n2)cc1` (stereo not drawn) [Product P7.1583], in assay [1], the “herbicidal activity post-emergence” value is recorded as “very good herbicidal activity”. Further, the “herbicidal activity … for rice crops” value in assay [2] is on record as “very good herbicidal activity”.

For the compound `CCc1nc(N)nc(NC(C)c2cccc(C3CC3)c2)n1` (stereo not drawn) [Product P7.1603], the “herbicidal activity post-emergence” value in assay [1] is “very good herbicidal activity”. The “herbicidal activity … for rice crops” value in assay [2] is “very good herbicidal activity”.

Regarding `CCc1nc(N)nc(NC(C)c2ccc(C3CC3)cc2)n1` (stereo not drawn) [Product P7.1604], the “herbicidal activity post-emergence” value in assay [1] is on record as “very good herbicidal activity”. Moreover, the “herbicidal activity … for rice crops” value in assay [2] was “very good herbicidal activity”.

Turning to `C#Cc1ccc(C(C)Nc2nc(N)nc(CC)n2)cc1F` (stereo not drawn) [Product P7.1620], the “herbicidal activity post-emergence” value in assay [1] was “very good herbicidal activity”. Also, in assay [2], the “herbicidal activity … for rice crops” value is “very good herbicidal activity”.

Turning to `C#Cc1cc(C(Nc2nc(N)nc(CC)n2)C2CC2)ccc1F` (stereo not drawn) [Product P9.309], in assay [1], the “herbicidal activity post-emergence” value is on record as “very good herbicidal activity”. The “herbicidal activity … for rice crops” value in assay [2] is given as “very good herbicidal activity”.

Regarding `C#Cc1c(F)cc(C(Nc2nc(N)nc(CC)n2)C2CC2)cc1F` (stereo not drawn) [Product P9.352], the “herbicidal activity post-emergence” value in assay [1] is reported as “very good herbicidal activity”. In assay [2], the “herbicidal activity … for rice crops” value is on record as “very good herbicidal activity”.

Take `CC#Cc1cc(C(Nc2nc(N)nc(CC)n2)C2CC2)ccc1F` (stereo not drawn) [Product P9.384]: the “herbicidal activity post-emergence” value in assay [1] is “very good herbicidal activity”. In assay [2], the “herbicidal activity … for rice crops” value is recorded as “very good herbicidal activity”.

For `CC#Cc1c(F)cc(C(Nc2nc(N)nc(CC)n2)C2CC2)cc1F` (stereo not drawn) [Product P9.428], the “herbicidal activity post-emergence” value in assay [1] was “very good herbicidal activity”. Further, the “herbicidal activity … for rice crops” value in assay [2] is listed as “very good herbicidal activity”.

Take `CCc1nc(N)nc(NC(c2cccc(C(F)=C(F)F)c2)C2CC2)n1` (stereo not drawn) [Product P9.1567]: the “herbicidal activity post-emergence” value in assay [1] was “very good herbicidal activity”. For the same compound, the “herbicidal activity … for rice crops” value in assay [2] was “very good herbicidal activity”.

Regarding `CCc1nc(N)nc(NC(c2ccc(C(F)=C(F)F)cc2)C2CC2)n1` (stereo not drawn) [Product P9.1568], the “herbicidal activity post-emergence” value in assay [1] is “very good herbicidal activity”. In addition, in assay [2], the “herbicidal activity … for rice crops” value was “very good herbicidal activity”.

Consider `C#Cc1cccc(C(Nc2nc(N)nc(CC)n2)C2CC2)c1` (stereo not drawn) [Product P9.1579], for which the “herbicidal activity post-emergence” value in assay [1] is given as “very good herbicidal activity”. Besides, the “herbicidal activity … for rice crops” value in assay [2] was “very good herbicidal activity”.

For the compound `C#Cc1ccc(C(Nc2nc(N)nc(CC)n2)C2CC2)cc1` (stereo not drawn) [Product P9.1580], the “herbicidal activity post-emergence” value in assay [1] is “very good herbicidal activity”. For the same compound, the “herbicidal activity … for rice crops” value in assay [2] is “very good herbicidal activity”.

On to `CC#Cc1cccc(C(Nc2nc(N)nc(CC)n2)C2CC2)c1` (stereo not drawn) [Product P9.1582], for which, in assay [1], the “herbicidal activity post-emergence” value was “very good herbicidal activity”. For the same compound, the “herbicidal activity … for rice crops” value in assay [2] is given as “very good herbicidal activity”.
